Reference: patent publication US20240409585A1, “MACROCYCLIC IMMUNOMODULATORS” (priority 2021, published 2024)
Like-named read-outs stand apart in the source and are kept apart here. Numbered stars: 1 amine (or outer) side, 2 acyl side, 3 side chain; on linkers, the order of the positions; unused ones are H or OH. Bridge positions count the residues as written; N and C are the ends. Square brackets hold non-standard residues; d marks the D form. Peptide text beside a SMILES is read from it. * marks the point of attachment. X45 = CNS(=O)(=O)c1cccc(-c2ccc(C[C@H](N[*:1])C(=O)[*:2])cc2)c1; Bip(4'-COOH) = N[C@@H](Cc1ccc(-c2ccc(C(=O)O)cc2)cc1)C(=O)O; Bip(4'-NHAc) = CC(=O)Nc1ccc(-c2ccc(C[C@H](N)C(=O)O)cc2)cc1; Phe(3-CF3) = N[C@@H](Cc1cccc(C(F)(F)F)c1)C(=O)O; Ala(morpholin-4-yl) = N[C@@H](CN1CCOCC1)C(=O)O; Phe(4-CONH2) = NC(=O)c1ccc(C[C@H](N)C(=O)O)cc1; Phe(4-COOH) = N[C@@H](Cc1ccc(C(=O)O)cc1)C(=O)O; X5 = CS(=O)(=O)NC(=O)C[C@H](N[*:1])C(=O)[*:2]; Bip = N[C@@H](Cc1ccc(-c2ccccc2)cc1)C(=O)O; Phe(4-NH2) = Nc1ccc(C[C@H](N)C(=O)O)cc1; Abu(3R-NH2) = C[C@@H](N)[C@H](N)C(=O)O; Phe(3-Me) = Cc1cccc(C[C@H](N)C(=O)O)c1; Abu(3S-NH2) = C[C@H](N)[C@H](N)C(=O)O; Val(3-OH) = CC(C)(O)[C@H](N)C(=O)O; Ala(cPr) = N[C@@H](CC1CC1)C(=O)O; hArg = N=C(N)NCCCC[C@H](N)C(=O)O; hPhe = N[C@@H](CCc1ccccc1)C(=O)O; Cha = N[C@@H](CC1CCCCC1)C(=O)O; Carboxymethyl = O=C(O)C*; NMeA = CN[C@@H](C)C(=O)O; Orn = NCCC[C@H](N)C(=O)O; Dab = NCC[C@H](N)C(=O)O

Molecular target: T1, Alexa fluor-647 labeled human PD-L1-Ig binding to Jurkat cell line over-expressing human PD-1 (Homo sapiens, UniProt Q15116)
T1 construct: expressed in transfected cells; host or cells: Jurkat
T1 sequence (Q15116 25-288): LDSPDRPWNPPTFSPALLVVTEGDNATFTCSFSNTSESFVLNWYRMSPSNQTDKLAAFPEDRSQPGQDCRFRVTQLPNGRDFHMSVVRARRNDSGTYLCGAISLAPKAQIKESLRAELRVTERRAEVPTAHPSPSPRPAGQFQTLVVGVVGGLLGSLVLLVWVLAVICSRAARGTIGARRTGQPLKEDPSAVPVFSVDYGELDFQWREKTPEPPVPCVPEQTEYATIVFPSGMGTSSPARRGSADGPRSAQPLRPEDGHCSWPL
Assay: Jurkat-PD-1 Cell Binding High-Content Screening Assay (CBA): Method 3 (Alexa fluor-647 labeled PD-L1-Ig)
Conditions: Jurkat-PD-1 cells, Alexa fluor-647 labeled PD-L1-Ig 177 nM
Protocol: Jurkat-PD-1 Cell Binding High-Content Screening Assay (CBA): Method 3
Alexa fluor-647 was covalently linked to the Ig epitope tag of human PD-L1-Ig and fluorescently labeled PD-L1-Ig was used for the binding studies with a Jurkat cell line over-expressing human PD-1. Briefly, 2.5×10^4 Jurkat-hPD-1 cells were seeded into 384 well plates in 20 μl of RPMI supplemented with 10% fetal calf serum. 12.5 nl of compound was added to cells followed by incubation at 37° C. for 2 hours. Then, 10 ul of Alexa fluor-647 labeled PD-L1-Ig (177 nM final), diluted in RPMI supplemented with 10% fetal calf serum was added to the cells and incubated for 1 hour. Cells were then fixed with 4% paraformaldehyde containing 10 μg/ml Hoechst 33342 and then washed 3× in 100 ul PBS and 100 ul of PBS was added in the final step. Data was collected using the Operetta High Content Imager and the data was analyzed using the columbus software.

[1] = head μM, read-out: CBA Method 3 μM

Structure (SMILES) | IC50 [1] [µM] | IC50 (nM, read-out: CBA Method 3) [µM]
CC(=O)Nc1ccc(-c2ccc(C[C@@H]3NC(=O)[C@H](Cc4cccc(C(F)(F)F)c4)NC(=O)[C@H](CC(=O)NS(C)(=O)=O)NC(=O)[C@H](Cc4ccc(C(N)=O)cc4)NC(=O)[C@H](CC(C)C)NC(=O)CSC[C@@H](C(=O)N[C@@H](CCN)C(N)=O)NC(=O)[C@H](CC(N)=O)NC(=O)[C@H](C(C)C)NC(=O)[C@H](CC4CCCCC4)NC(=O)[C@H](CCN)NC(=O)[C@@H](CC(C)C)NC(=O)[C@H](C)N(C)C(=O)[C@H](Cc4ccc(C(N)=O)cc4)NC(=O)[C@H](Cc4ccc(-c5ccccc5)cc4)NC3=O)cc2)cc1 [Example 5114] ({CH2CO}-L[Phe(4-CONH2)][X5][Phe(3-CF3)][Bip(4'-NHAc)][Bip][Phe(4-CONH2)][NMeA][dL][Dab][Cha]VNC[Dab]-NH2; thioether N-14) | 0.11 | –
CC(=O)Nc1ccc(-c2ccc(C[C@@H]3NC(=O)[C@H](Cc4cccc(C(F)(F)F)c4)NC(=O)[C@H](CC(=O)O)NC(=O)[C@H](Cc4ccc(C(=O)O)cc4)NC(=O)[C@H]([C@@H](C)N)NC(=O)CSC[C@@H](C(=O)N[C@@H](CCN)C(N)=O)NC(=O)[C@H](CCC(=O)O)NC(=O)[C@H](C(C)C)NC(=O)[C@H](CC4CCCCC4)NC(=O)[C@H](CCN)NC(=O)[C@@H](CC(C)C)NC(=O)[C@H](C)N(C)C(=O)[C@H](Cc4ccc(C(=O)O)cc4)NC(=O)[C@H](Cc4ccc(-c5ccccc5)cc4)NC3=O)cc2)cc1 [Example 5154] ({CH2CO}-[Abu(3R-NH2)][Phe(4-COOH)]D[Phe(3-CF3)][Bip(4'-NHAc)][Bip][Phe(4-COOH)][NMeA][dL][Dab][Cha]VEC[Dab]-NH2; thioether N-14) | – | 0.0063
Cc1cccc(C[C@@H]2NC(=O)[C@H](CC(=O)O)NC(=O)[C@H](Cc3ccc(-c4ccc(C(=O)O)cc4)cc3)NC(=O)[C@H](CN3CCOCC3)NC(=O)CSC[C@@H](C(=O)N[C@@H](CCN)C(N)=O)NC(=O)[C@H](CCC(=O)O)NC(=O)[C@H](C(C)C)NC(=O)[C@H](CC3CCCCC3)NC(=O)[C@H](CCN)NC(=O)[C@@H](CC(C)C)NC(=O)[C@H](C)N(C)C(=O)[C@H](Cc3ccc(C(=O)O)cc3)NC(=O)[C@H](Cc3ccc(-c4ccccc4)cc3)NC(=O)[C@H](Cc3ccc(-c4ccc(C(=O)O)cc4)cc3)NC2=O)c1 [Example 5093] ({CH2CO}-[Ala(morpholin-4-yl)][Bip(4'-COOH)]D[Phe(3-Me)][Bip(4'-COOH)][Bip][Phe(4-COOH)][NMeA][dL][Dab][Cha]VEC[Dab]-NH2; thioether N-14) | 0.16 | –
Cc1cccc(C[C@@H]2NC(=O)[C@H](CC(=O)O)NC(=O)[C@H](Cc3ccc(OCC(=O)O)cc3)NC(=O)[C@H](Cc3ccccc3)NC(=O)CSC[C@@H](C(=O)N[C@@H](CCN)C(N)=O)NC(=O)[C@H](CCCN)NC(=O)[C@H](C(C)C)NC(=O)[C@H](CC3CCCCC3)NC(=O)[C@H](CCN)NC(=O)[C@@H](CC(C)C)NC(=O)[C@H](C)N(C)C(=O)[C@H](CCC(N)=O)NC(=O)[C@H](Cc3ccc(-c4ccccc4)cc3)NC(=O)[C@H](Cc3ccc(C(=O)O)cc3)NC2=O)c1 [Example 5267] ({CH2CO}-FY(Carboxymethyl)D[Phe(3-Me)][Phe(4-COOH)][Bip]Q[NMeA][dL][Dab][Cha]V[Orn]C[Dab]-NH2; thioether N-14) | – | 0.0012
Cc1cccc(C[C@@H]2NC(=O)[C@H](CC(=O)O)NC(=O)[C@H](Cc3ccc(OCC(=O)O)cc3)NC(=O)[C@H](CCCCNC(=N)N)NC(=O)CSC[C@@H](C(=O)N[C@@H](CCN)C(N)=O)NC(=O)[C@H](CCC(=O)O)NC(=O)[C@H](C(C)C)NC(=O)[C@H](CC3CCCCC3)NC(=O)[C@H](CCN)NC(=O)[C@@H](CC(C)C)NC(=O)[C@H](C)N(C)C(=O)[C@H](CCC(N)=O)NC(=O)[C@H](Cc3ccc(-c4ccccc4)cc3)NC(=O)[C@H](CCc3ccccc3)NC2=O)c1 [Example 5283] ({CH2CO}-[hArg]Y(Carboxymethyl)D[Phe(3-Me)][hPhe][Bip]Q[NMeA][dL][Dab][Cha]VEC[Dab]-NH2; thioether N-14) | 0.01 | –
Cc1cccc(C[C@@H]2NC(=O)[C@H](CC(=O)O)NC(=O)[C@H](Cc3ccc(OCC(=O)O)cc3)NC(=O)[C@H](CC3CCCCC3)NC(=O)CSC[C@@H](C(=O)N[C@@H](CCN)C(N)=O)NC(=O)[C@H](CCCN)NC(=O)[C@H](C(C)C)NC(=O)[C@H](CC3CC3)NC(=O)[C@H](CCN)NC(=O)[C@@H](CC(C)C)NC(=O)[C@H](C)N(C)C(=O)[C@H](CCC(N)=O)NC(=O)[C@H](Cc3ccc(-c4ccccc4)cc3)NC(=O)[C@H](Cc3ccc(C(=O)O)cc3)NC2=O)c1 [Example 5192] ({CH2CO}-[Cha]Y(Carboxymethyl)D[Phe(3-Me)][Phe(4-COOH)][Bip]Q[NMeA][dL][Dab][Ala(cPr)]V[Orn]C[Dab]-NH2; thioether N-14) | 0.15 | –
CNS(=O)(=O)c1cccc(-c2ccc(C[C@@H]3NC(=O)[C@H](Cc4cccc(C)c4)NC(=O)[C@H](CC(=O)O)NC(=O)[C@H](Cc4ccc(OCC(=O)O)cc4)NC(=O)[C@H](CN4CCOCC4)NC(=O)CSC[C@@H](C(=O)N[C@@H](CCN)C(N)=O)NC(=O)[C@H](CCCN)NC(=O)[C@H](C(C)C)NC(=O)[C@H](CC4CCCCC4)NC(=O)[C@H](CCN)NC(=O)[C@@H](CC(C)C)NC(=O)[C@H](C)N(C)C(=O)[C@H](CCC(N)=O)NC(=O)[C@H](Cc4ccc(-c5ccccc5)cc4)NC3=O)cc2)c1 [Example 5108] ({CH2CO}-[Ala(morpholin-4-yl)]Y(Carboxymethyl)D[Phe(3-Me)][X45][Bip]Q[NMeA][dL][Dab][Cha]V[Orn]C[Dab]-NH2; thioether N-14) | – | 0.0073
CC(C)C[C@H]1NC(=O)[C@H](C)N(C)C(=O)[C@H](Cc2ccc(C(=O)O)cc2)NC(=O)[C@H](Cc2ccc(-c3ccccc3)cc2)NC(=O)[C@H](Cc2ccc(C(N)=O)cc2)NC(=O)[C@H](Cc2cccc(C(F)(F)F)c2)NC(=O)[C@H](CC(=O)O)NC(=O)[C@H](Cc2ccc(C(=O)O)cc2)NC(=O)[C@H]([C@H](C)N)NC(=O)CSC[C@@H](C(=O)N[C@@H](CCN)C(N)=O)NC(=O)[C@H](CC(N)=O)NC(=O)[C@H](C(C)C)NC(=O)[C@H](CC2CCCCC2)NC(=O)[C@H](CCN)NC1=O [Example 5101] ({CH2CO}-[Abu(3S-NH2)][Phe(4-COOH)]D[Phe(3-CF3)][Phe(4-CONH2)][Bip][Phe(4-COOH)][NMeA][dL][Dab][Cha]VNC[Dab]-NH2; thioether N-14) | – | 0.0037
Cc1cccc(C[C@@H]2NC(=O)[C@H](CC(=O)O)NC(=O)[C@H](Cc3ccc(OCC(=O)O)cc3)NC(=O)[C@H](CC3CCCCC3)NC(=O)CSC[C@@H](C(=O)N[C@@H](CCN)C(N)=O)NC(=O)[C@H](CCCN)NC(=O)[C@H](C(C)C)NC(=O)[C@H](CN3CCOCC3)NC(=O)[C@H](CCN)NC(=O)[C@@H](CC(C)C)NC(=O)[C@H](C)N(C)C(=O)[C@H](CCC(N)=O)NC(=O)[C@H](Cc3ccc(-c4ccccc4)cc3)NC(=O)[C@H](Cc3ccc(C(=O)O)cc3)NC2=O)c1 [Example 5191] ({CH2CO}-[Cha]Y(Carboxymethyl)D[Phe(3-Me)][Phe(4-COOH)][Bip]Q[NMeA][dL][Dab][Ala(morpholin-4-yl)]V[Orn]C[Dab]-NH2; thioether N-14) | 0.12 | –
Cc1cccc(C[C@@H]2NC(=O)[C@H](CC(=O)O)NC(=O)[C@H](Cc3ccc(OCC(=O)O)cc3)NC(=O)[C@H](CC3CCCCC3)NC(=O)CSC[C@@H](C(=O)N[C@@H](CCN)C(N)=O)NC(=O)[C@H](CCCN)NC(=O)[C@H](C(C)C)NC(=O)[C@H](Cc3ccc(N)cc3)NC(=O)[C@H](CCN)NC(=O)[C@@H](CC(C)C)NC(=O)[C@H](C)N(C)C(=O)[C@H](CCC(N)=O)NC(=O)[C@H](Cc3ccc(-c4ccccc4)cc3)NC(=O)[C@H](Cc3ccc(C(=O)O)cc3)NC2=O)c1 [Example 5189] ({CH2CO}-[Cha]Y(Carboxymethyl)D[Phe(3-Me)][Phe(4-COOH)][Bip]Q[NMeA][dL][Dab][Phe(4-NH2)]V[Orn]C[Dab]-NH2; thioether N-14) | 0.33 | –
CC(C)C[C@H]1NC(=O)[C@H](C)N(C)C(=O)[C@H](CCC(N)=O)NC(=O)[C@H](Cc2ccc(-c3ccccc3)cc2)NC(=O)[C@H](CCc2ccccc2)NC(=O)[C@H](Cc2cccc(C(F)(F)F)c2)NC(=O)[C@H](CC(=O)N[C@@H](CC(=O)O)C(=O)O)NC(=O)[C@H](Cc2ccc(OCC(=O)O)cc2)NC(=O)[C@H](CN2CCOCC2)NC(=O)CSC[C@@H](C(=O)N[C@@H](CCN)C(N)=O)NC(=O)[C@H](CCCN)NC(=O)[C@H](C(C)C)NC(=O)[C@H](CC2CCCCC2)NC(=O)[C@H](CCN)NC1=O [Example 5294] ({CH2CO}-[Ala(morpholin-4-yl)]Y(Carboxymethyl)D(Asp)[Phe(3-CF3)][hPhe][Bip]Q[NMeA][dL][Dab][Cha]V[Orn]C[Dab]-NH2; thioether N-14) | 0.04 | –
CC(=O)Nc1ccc(-c2ccc(C[C@@H]3NC(=O)[C@H](Cc4cccc(C(F)(F)F)c4)NC(=O)[C@H](CC(=O)O)NC(=O)[C@H](Cc4ccc(-c5ccc(C(=O)O)cc5)cc4)NC(=O)[C@H](CN4CCOCC4)NC(=O)CSC[C@@H](C(=O)N[C@@H](CCN)C(N)=O)NC(=O)[C@H](CCC(N)=O)NC(=O)[C@H](C(C)(C)O)NC(=O)[C@H](CC4CCCCC4)NC(=O)[C@H](CCN)NC(=O)[C@@H](CC(C)C)NC(=O)[C@H](C)N(C)C(=O)[C@H](Cc4ccc(C(=O)O)cc4)NC(=O)[C@H](Cc4ccc(-c5ccccc5)cc4)NC3=O)cc2)cc1 [Example 5296] ({CH2CO}-[Ala(morpholin-4-yl)][Bip(4'-COOH)]D[Phe(3-CF3)][Bip(4'-NHAc)][Bip][Phe(4-COOH)][NMeA][dL][Dab][Cha][Val(3-OH)]QC[Dab]-NH2; thioether N-14) | 0.02 | –
